Data reported in patent US5196513A, “Synthetic peptides derived from the beta-subunit of human thyroid stimulating hormone” (Mayo Foundation for Medical Education and Research, priority 1991, dated 1993).
Residues, ends and D or L forms follow the SMILES beside them.

Columns and labels:
FRTL5 cells [1] = target: T1, FRTL5 cells (Rattus norvegicus, UniProt P21463); experiment: TSab bioassay, inhibition of TSab-stimulated cAMP generation in FRTL5 cells; assay type: cell-based; conditions: for Serum samples in which TSab-stimulated cAMP was significantly inhibited (p<0.05) / samples tested: peptide 150 μg/ml; for Inhibition of TSab-stimulated cAMP generation (in words): peptide 50 and 150 μg/ml
Experimental: (§1) FRTL5 cells were cultured in Hams F-12 medium supplemented with 5% calf serum and a preparation containing 6 hormones (6H), including 10 mU/ml bTSH (Sigma, St. Louis, Mo.), as previously described. Ambesi-Impiombato et al., Proc. Natl. Acad. Sci. U.S.A., 77:3455 (1980), the disclosure of which is incorporated by reference herein. The cells were enzymatically removed from flasks and plated in 24 well plates containing 6H at a density of 150,000 cells per well. After 4 days, the cells were washed and the media replaced with media containing insulin only (1H). All subsequent assays were performed on cells deprived of TSH for 5-7 days.
Serum samples from 15 patients with elevated TSab levels were selected from the clinical chemistry laboratory. The TSab values, expressed as an index, [formula] 63:707 (1988)]ranged from 10-20 with an average of 13.8±3.3. Normal serum has an index of less than 1.3.
The bioassay described by Kasagi et al., supra, with modifications as previously noted above, was used. The immunoglobulins were precipitated from 2 ml of TSab-containing serum with 6 ml of polyethylene glycol 6,000 (Baker; Phillipsburg, N.J.), centrifuged at 3,000×g for 20 minutes, and resuspended in 4 ml of NaCl-free HBSS with 0.5 mM IBMX and 0.5% BSA. The plated cells were washed with NaCl-free HBSS and the crude immunoglobulin extract, mixed with various concentrations of β-subunit peptides, was added in duplicate to the wells (total volume 200 μl/well). The cells were incubated for 2 hours at 37° C. and 5% CO2. The samples were then removed from the cells and a portion diluted 1:50 in NaOAc buffer, pH 6.2. A 25 μl aliquot of this was then used in a cAMP RIA as described above. The basal cAMP levels were determined for each plate of cells in the absence of immunoglobulin extract and β-peptides. A maximal cAMP level was attained by stimulating the cells with the immunoglobulin extract only. The percent increase in cAMP levels above basal was calculated as: [formula] as previously described (see Morris et al., supra). The percent inhibition of cAMP production by the β-subunit peptides was calculated as described above for TSH-stimulated cells, substituting pmol cAMP crude immunoglobulin for pmol cAMP TSH.
Inhibition of TSab activity was tested by comparing the replicates of cAMP levels generated in the presence of peptide to those generated by TSab alone using Student's T test for unpaired samples. Mean inhibition by the various doses of synthetic peptide for the patient group was tested by comparison with maximum cAMP response within each patient sample using the T test for paired samples.

[2] = target: T2, TSH receptor on human thyroid membranes (Homo sapiens, UniProt P16473); experiment: Human thyroid membrane TSH radio-receptor assay (inhibition of 125I-bTSH binding); conditions: for Inhibition of TSH binding to human thyroid membrane (in words): human thyroid membrane RRA; for EC50: concentration inhibiting 125I-bTSH binding to human thyroid membrane by 50%, mean ± se of at least 3 assays
T2 construct: Crude membrane preparations were prepared from the frozen tissue; from tissue; host or cells: human thyroid tissue (Graves' disease patients), crude 2000 x g membrane fraction
Experimental: Thyroid tissue from patients with Graves' disease was obtained at surgery and promptly frozen and maintained at -70° C. Crude membrane preparations were prepared from the frozen tissue as previously described, Takahashi et al., J. Clin. Endocrinol. Metab., 47:870-876 (1978), the disclosure of which is incorporated by reference herein. Briefly, the tissue was homogenized with a Polytron homogenizer (Brinkmann Instruments,Westbury, N.Y.), and the 2000×g fraction was collected by centrifugation, washed, and resuspended in 40 mM Tris, 200 mM sucrose, pH 7.4. Membrane preparations were maintained at -70° C. until assay.
(§2) Highly purified bTSH (30 U/mg, supplied by Dr. J. G. Pierce, formerly of UCLA) was radio-iodinated (Na^125 I, Amersham, Chicago) by a lactoperoxidase technique to a specific activity averaging 40-50 μCi/μg as previously described, Takahashi et al., supra, then purified by Sephadex G-100 chromatography.
(§3) The TSH radio-receptor assay (RRA) utilized for the studies has been well described previously; see Takahashi et al., supra and Morris et al., Endocrinology, 123:456-462 (1988), the disclosure of which is incorporated by reference herein. Briefly, for either human or porcine thyroid RRA, the incubation mixture consisted of the following: 10 mg equivalents of wet weight (mg eq) crude thyroid membrane preparation, 0.124 ng [^125 I]iodo-bTSH (approximately 20,000 cpm), 0.2% Triton X-100, and the noted amounts of synthetic peptides or unlabeled bTSH in 0.5 ml 40 mM Tris, 0.1% BSA, pH 7.4. Bound label was separated from free after 2 hrs incubation at 25° C. by addition of a 1 ml 30% polyethylene glycol (PEG, Baker, Phillipsburg, N.J.) 6000 in 1M NaCl and centrifugation. The resulting pellet was counted in a gamma counter. Non-specific binding was determined by addition of a 100 mU/ml crude bTSH (Sigma, St. Louis).

FRTL5 cells [3] = target: T1, FRTL5 cells; experiment: TSH bioassay, inhibition of TSH-mediated cAMP generation in FRTL5 cells; assay type: cell-based
Experimental: as §1
The TSH bioassay was a modification of assays previously described by Bidey et al., J. Endocrinol., 101:269 (1984); and Kasagi et al., ACTA Endocrinol., 115:30 (1987). FRTL5 cells were washed with NaCl-free Hanks balanced salt solution (NaCl-free HBSS) pH 7.3. The cells were then exposed to purified bovine TSH (bTSH) (a gift from Dr. John Pierce, formerly of UCLA) in the presence and absence of specific β-subunit peptides in NaCl-free HBSS with 0.5 mM isobutylmethylxanthine (IBMX, Sigma, St. Louis, Mo.) and 0.5% BSA (Sigma). The total volume in each well was 275 μl. In stimulation assays, only the β-subunit peptides were added. For inhibition assays, two different concentrations of the β-subunit peptides were added to culture wells in duplicate with 200 mU/I of purified bTSH. The plates were incubated for 2 hours at 37° C. in 5% CO2. The media was removed from the cells and a portion diluted 1:50 in 0.05M NaOAc buffer, pH 6.2. A 25 μl aliquot of this was used in a cAMP RIA. Basal cAMP levels were determined in the absence of the TSH or β-subunit peptides. In inhibition assays, the percent inhibition was calculated as noted below (see Morris et al., (1988) supra): [formula]

[4] = target: T3, porcine TSH receptor (porcine thyroid membranes) (Sus scrofa, UniProt Q8SPP9); experiment: Porcine thyroid membrane TSH radio-receptor assay (inhibition of 125I-bTSH binding); conditions: concentration inhibiting 125I-bTSH binding to porcine thyroid membrane by 50%; mean ± se of at least 3 assays
T3 construct: Frozen porcine thyroid glands were purchased; tissue Pel-Freez Biologicals; host or cells: porcine thyroid glands, crude membrane preparation
From the text: (§4) Frozen porcine thyroid glands were purchased (Pel-Freez Biologicals, Rogers, Ak.) and prepared using the same procedures as for the human glands.
as §2, §3

[5] = target: T4, EGF thyroid membrane receptor (Sus scrofa, UniProt A0A5G2R2I8); experiment: Porcine thyroid membrane epidermal growth factor radio-receptor assay; assay type: binding; conditions: [125I]iodo-EGF, read-out: EC50 of unlabeled EGF in EGF RRA
T4 construct: The incubation mixture consisted of 40 mg eq crude thyroid membrane; tissue Pel-Freez Biologicals; host or cells: porcine thyroid glands, crude membrane preparation
Experimental: as §4
The EGF RRA was a modification of that described by Humphries et al., J. Endocrinol., 102:857-61 (1984), the disclosure of which is incorporated by reference herein. Purified murine EGF (a gift of Dr. N. S. Jiang, Mayo Clinic) was radio-iodinated by a chloramine-T technique to a specific activity of 65 μCi/μg. The incubation mixture consisted of 40 mg eq crude thyroid membrane, 0.5 ng [^125 I]iodo-EGF, and the indicated concentrations of unlabeled EGF or synthetic peptides in 0.5 ml phosphate buffered saline plus 5 mM MgCl2, 1 mM CaCl2, 0.1% BSA, pH 7.4. Non-specific binding was determined by addition of 0.5 μg unlabeled EGF. Bound was separated from free by precipitation with PEG and centrifugation as above.

T1 sequence (P21463 22-764): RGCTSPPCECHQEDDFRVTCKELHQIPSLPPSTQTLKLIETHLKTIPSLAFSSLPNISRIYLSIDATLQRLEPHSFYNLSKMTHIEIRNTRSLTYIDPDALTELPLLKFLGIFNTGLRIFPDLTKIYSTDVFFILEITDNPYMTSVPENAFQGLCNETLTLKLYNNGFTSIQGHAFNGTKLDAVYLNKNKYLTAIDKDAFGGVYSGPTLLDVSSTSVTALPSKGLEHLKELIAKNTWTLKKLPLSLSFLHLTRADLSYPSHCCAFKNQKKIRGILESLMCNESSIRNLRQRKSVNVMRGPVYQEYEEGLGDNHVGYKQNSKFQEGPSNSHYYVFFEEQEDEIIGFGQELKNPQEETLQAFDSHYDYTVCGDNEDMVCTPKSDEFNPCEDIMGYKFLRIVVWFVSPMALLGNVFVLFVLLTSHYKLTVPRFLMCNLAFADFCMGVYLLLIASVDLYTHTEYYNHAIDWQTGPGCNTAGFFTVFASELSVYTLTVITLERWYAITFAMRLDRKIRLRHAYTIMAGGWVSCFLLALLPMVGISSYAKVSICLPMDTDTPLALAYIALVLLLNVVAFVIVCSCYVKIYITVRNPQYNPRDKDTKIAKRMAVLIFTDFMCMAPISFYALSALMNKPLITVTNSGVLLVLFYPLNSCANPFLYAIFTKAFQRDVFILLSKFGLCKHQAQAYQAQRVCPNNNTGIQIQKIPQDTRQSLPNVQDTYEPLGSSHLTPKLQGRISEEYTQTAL
T2 sequence (P16473 21-764): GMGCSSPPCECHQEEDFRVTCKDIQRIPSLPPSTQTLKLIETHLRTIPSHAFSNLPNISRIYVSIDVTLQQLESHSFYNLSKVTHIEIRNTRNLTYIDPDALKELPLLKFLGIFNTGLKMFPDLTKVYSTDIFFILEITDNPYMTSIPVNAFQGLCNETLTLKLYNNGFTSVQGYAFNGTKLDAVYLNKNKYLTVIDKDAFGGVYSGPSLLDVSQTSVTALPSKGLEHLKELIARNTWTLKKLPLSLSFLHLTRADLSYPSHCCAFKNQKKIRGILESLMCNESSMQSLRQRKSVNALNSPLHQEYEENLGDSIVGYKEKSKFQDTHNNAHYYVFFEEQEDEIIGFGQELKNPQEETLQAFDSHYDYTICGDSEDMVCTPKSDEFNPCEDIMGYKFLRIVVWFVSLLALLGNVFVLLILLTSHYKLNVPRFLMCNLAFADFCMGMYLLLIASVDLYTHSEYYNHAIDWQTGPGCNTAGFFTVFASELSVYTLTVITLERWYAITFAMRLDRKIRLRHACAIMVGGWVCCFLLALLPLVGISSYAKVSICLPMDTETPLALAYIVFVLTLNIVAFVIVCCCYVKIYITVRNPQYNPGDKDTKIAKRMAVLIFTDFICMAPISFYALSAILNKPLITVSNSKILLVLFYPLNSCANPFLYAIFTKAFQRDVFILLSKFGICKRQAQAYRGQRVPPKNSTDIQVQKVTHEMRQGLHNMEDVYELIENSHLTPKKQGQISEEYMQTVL
T3 sequence (Q8SPP9 22-764): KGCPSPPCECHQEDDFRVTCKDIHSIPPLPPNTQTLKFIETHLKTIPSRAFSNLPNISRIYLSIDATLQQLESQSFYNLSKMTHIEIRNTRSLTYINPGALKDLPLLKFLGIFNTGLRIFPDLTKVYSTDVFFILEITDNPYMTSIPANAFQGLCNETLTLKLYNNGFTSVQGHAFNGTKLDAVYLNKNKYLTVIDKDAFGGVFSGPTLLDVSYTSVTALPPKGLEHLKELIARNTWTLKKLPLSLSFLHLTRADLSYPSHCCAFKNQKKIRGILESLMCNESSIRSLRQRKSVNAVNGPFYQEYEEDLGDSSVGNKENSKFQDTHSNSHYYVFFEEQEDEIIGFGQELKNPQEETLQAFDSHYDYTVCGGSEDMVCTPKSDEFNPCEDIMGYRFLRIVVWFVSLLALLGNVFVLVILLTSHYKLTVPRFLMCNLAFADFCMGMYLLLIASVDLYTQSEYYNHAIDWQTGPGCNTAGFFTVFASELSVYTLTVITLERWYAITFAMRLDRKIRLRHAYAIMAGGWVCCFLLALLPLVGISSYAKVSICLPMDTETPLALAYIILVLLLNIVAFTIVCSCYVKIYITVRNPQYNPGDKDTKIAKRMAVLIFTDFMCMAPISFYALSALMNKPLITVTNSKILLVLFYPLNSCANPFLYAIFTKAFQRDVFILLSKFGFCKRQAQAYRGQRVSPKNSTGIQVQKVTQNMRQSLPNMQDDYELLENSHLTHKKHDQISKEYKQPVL
T4 sequence (A0A5G2R2I8 22-1210): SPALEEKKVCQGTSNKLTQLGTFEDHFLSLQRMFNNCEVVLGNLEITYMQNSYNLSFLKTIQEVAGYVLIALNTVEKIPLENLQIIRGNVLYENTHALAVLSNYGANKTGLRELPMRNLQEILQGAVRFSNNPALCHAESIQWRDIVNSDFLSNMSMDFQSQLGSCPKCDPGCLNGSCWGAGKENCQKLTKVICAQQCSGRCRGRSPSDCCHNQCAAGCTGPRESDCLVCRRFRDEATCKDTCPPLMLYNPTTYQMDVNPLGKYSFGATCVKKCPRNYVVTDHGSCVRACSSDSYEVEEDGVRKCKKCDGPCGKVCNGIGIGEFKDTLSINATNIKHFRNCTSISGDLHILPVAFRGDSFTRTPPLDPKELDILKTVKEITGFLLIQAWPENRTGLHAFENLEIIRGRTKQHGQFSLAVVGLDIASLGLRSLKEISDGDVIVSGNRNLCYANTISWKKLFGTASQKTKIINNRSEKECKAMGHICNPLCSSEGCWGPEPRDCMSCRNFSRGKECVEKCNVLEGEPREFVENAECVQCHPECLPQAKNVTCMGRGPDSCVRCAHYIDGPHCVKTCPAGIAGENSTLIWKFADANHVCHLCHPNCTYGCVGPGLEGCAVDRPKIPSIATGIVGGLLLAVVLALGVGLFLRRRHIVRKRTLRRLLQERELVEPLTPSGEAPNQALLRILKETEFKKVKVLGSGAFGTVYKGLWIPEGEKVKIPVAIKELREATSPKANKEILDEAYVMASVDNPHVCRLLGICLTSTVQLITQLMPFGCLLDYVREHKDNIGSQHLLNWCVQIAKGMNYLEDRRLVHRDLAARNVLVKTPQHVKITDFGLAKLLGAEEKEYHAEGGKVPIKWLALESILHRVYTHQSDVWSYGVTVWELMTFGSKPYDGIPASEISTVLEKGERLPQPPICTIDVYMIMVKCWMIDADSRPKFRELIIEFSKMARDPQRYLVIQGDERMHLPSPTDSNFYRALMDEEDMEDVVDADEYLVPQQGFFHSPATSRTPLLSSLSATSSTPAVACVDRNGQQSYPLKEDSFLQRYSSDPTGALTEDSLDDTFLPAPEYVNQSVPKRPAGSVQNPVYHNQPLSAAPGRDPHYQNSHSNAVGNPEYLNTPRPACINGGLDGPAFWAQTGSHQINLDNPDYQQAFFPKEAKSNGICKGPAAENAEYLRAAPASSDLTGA

Compound | Serum samples in which TSab-stimulated cAMP was significantly inhibited (p<0.05) / samples tested (FRTL5 cells [1]) | Inhibition of TSab-stimulated cAMP generation (in words) (FRTL5 cells [1]) | Inhibition of TSab-stimulated cAMP generation (in words) (FRTL5 cells [1]; listed as (II)) | Inhibition of TSH binding to human thyroid membrane (in words) [2] | Inhibition of TSH-mediated cAMP generation (in words) (FRTL5 cells [3]) | Inhibition of TSab-stimulated cAMP generation (in words) (FRTL5 cells [1]; listed as (III)) | EC50 [2] [µM] | EC50 [4] [µM] | Inhibition of TSab-stimulated cAMP generation (in words) (FRTL5 cells [1]; listed as (I)) | EC50 [5] [nM]
CC(C)C[C@H](N)C(=O)N[C@@H](CO)C(=O)N[C@@H](CS)C(=O)N[C@@H](CCCCN)C(=O)N[C@@H](CS)C(=O)NCC(=O)N[C@@H](CCCCN)C(=O)N[C@@H](CS)C(=O)N[C@@H](CC(N)=O)C(=O)N[C@H](C(=O)N[C@@H](CC(=O)O)C(=O)N[C@@H](Cc1ccc(O)cc1)C(=O)N[C@@H](CO)C(=O)N[C@@H](CC(=O)O)C(=O)N[C@@H](CS)C(N)=O)[C@@H](C)O [β81-95, Leu-Ser-Cys-Lys-Cys-Gly-Lys-Cys-Asn-Thr-Asp-Tyr-Ser-Asp-Cys] (H-LSCKCGKCNTDYSDC-NH2; N-terminus assumed) | 10/11 | significantly inhibited cAMP production | inhibitory effect | inhibit binding of TSH to human thyroid membrane | effectively inhibit TSH-mediated cAMP generation |  |  |  |  | 
C[C@@H](O)[C@H](NC(=O)[C@H](CS)NC(=O)[C@H](Cc1ccc(O)cc1)NC(=O)[C@H](CC(N)=O)NC(=O)[C@@H](NC(=O)[C@@H](N)CCCCN)[C@@H](C)O)C(=O)N[C@@H](CCCCN)C(=O)N1CCC[C@H]1C(=O)N[C@@H](CCC(N)=O)C(=O)N[C@@H](CCCCN)C(=O)N[C@@H](CO)C(=O)N[C@@H](Cc1ccc(O)cc1)C(=O)O [β101-112, Lys-Thr-Asn-Tyr-Cys-Thr-Lys-Pro-Gln-Lys-Ser-Tyr] (H-KTNYCTKPQKSY-OH) | 10/11 | significantly inhibited cAMP production |  | inhibit binding of TSH to human thyroid membrane | effectively inhibit TSH-mediated cAMP generation | inhibitory effect | 80 ± 9 | 106 ± 8.7 |  | 
CC[C@H](C)[C@H](NC(=O)[C@H](Cc1c[nH]cn1)NC(=O)[C@H](CCSC)NC(=O)[C@@H](NC(=O)[C@H](Cc1ccc(O)cc1)NC(=O)[C@H](CCC(=O)O)NC(=O)[C@@H](NC(=O)[C@@H]1CCCN1C(=O)[C@@H](NC(=O)[C@H](CS)NC(=O)[C@@H](N)Cc1ccccc1)[C@@H](C)CC)[C@@H](C)O)[C@@H](C)O)C(=O)N[C@@H](CCC(=O)O)C(=O)N[C@@H](CCCNC(=N)N)C(=O)N[C@@H](CCCNC(=N)N)C(=O)N[C@@H](CCC(=O)O)C(N)=O [β1-15, Phe-Cys-Ile-Pro-Thr-Glu-Tyr-Thr-Met-His-Ile-Glu-Arg-Arg-Glu] (H-FCIPTEYTMHIERRE-NH2; N-terminus assumed) | 12/12 | significantly inhibited cAMP production |  |  | effectively inhibit TSH-mediated cAMP generation |  | 331 ± 45 | 1160 ± 431 | inhibitory effect | 
EGF: purified murine epidermal growth factor, unlabeled |  |  |  |  |  |  |  |  |  | 0.252
